Molecules are shown by their SMILES.

The first assay has as its system Human Jurkat T-cells (clone N). The experiment in a line: Jurkat T-cell activation (anti-TCR, CD69 upregulation). It is filed as cell-based.
Settings: not given
The method, then:
The screening process took place over three days.
On the first day of the screen, cultured cells were spun down on a centrifuge (1000 rpm, 5 minutes) and resuspended at 3.0×10^5 cells/ml in RPMI+5% FBS. On the second day of the screen, cells were spun down at 1000 rpm for 5 minutes and resuspended in RPMI+5% FBS at 1.3×10^5 cells/ml. 85 μl of this cell suspension were added to the wells of U-bottom 96 well plates (Corning) 85 μl of compound or diluted RPMI+5% FBS (as a control) only was added to each well and incubated at 37° C. for 1 hour. The cells were then stimulated with anti-TCR (C305) at: 500 ng/ml by adding a 8× solution in 25 μl to the plated cells. The cells were then incubated at 37° C. for 20 hrs.
On the third day of the screen, the plates were spun at 2500 RPM for 1 minute on a Beckman GS-6R centrifuge, and the medium was then removed. 50 μl staining solution (1:100 dilution of anti-CD69-APC antibody (Becton Dickenson) in PBS+2% FBS) was then added to each well, followed by incubation of the plates 4 degrees for 20 minutes in the dark. 150 μl of wash buffer (PBS+2% FBS) was then added to each well, and the plates were spun at 3000 RPM for 1 minute. The supernatant was again removed, and the pellet was resuspended by vortexing gently. 75 μl of PBS+2% FBS +Cytofix (1:4 dilution) was then added, the plates gently vortexed and wrap in aluminum foil. Cells from the plates were read using a flow cytometer coupled to an automated liquid handling system.
Varied concentrations of compound were compared to solvent only to determine the inhibition of T-cell activation IC50 of each compound.
`Fc1cnc(Nc2ccc(OCc3nc(-c4ccccc4)no3)cc2)nc1Nc1ccc2c(c1)OCCO2` [Compound R935136]: the IC50 is greater than 10 µM. On to `CC(C)c1cccc(Nc2nc(Nc3cccc(OCC(=O)NC[C@@H](O)CO)c3)ncc2F)c1` [Compound R940307], for which the IC50 came out at 2.06 µM. Still for that read-out and setting: with `COC(=O)Cn1ncc2ccc(Nc3nc(Nc4cccc(O)c4)ncc3F)cc21` [Compound R935220] the figure was 8.07 µM. Take `CNC(=O)COc1cccc(Nc2ncc(F)c(Nc3cccc(C(=O)c4ccccc4)c3)n2)c1` [Compound R950372]: the IC50 came to 2.19 µM. Consider `CNC(=O)COc1cccc(Nc2ncc(F)c(Nc3ccc(OC)c(C(=O)OC)c3)n2)c1` [Compound R940300], for which the IC50 turned out to be 9.28 µM. Against the preceding compound, the IC50 is about 4.2-fold higher. Same read-out and setting: with `O=C(O)COc1cccc(Nc2ncc(F)c(Nc3ccc(O)c(C(=O)O)c3)n2)c1` [Compound R950291] the figure was greater than 10 µM; with `COC(=O)c1cc(Nc2ncc(F)c(Nc3ccc(OC(C)C)cc3)n2)cn1C` [Compound R935164], 3.32 µM; with `Cn1nnc(COc2ccc(Nc3ncc(F)c(Nc4ccc(OCc5nnn(C)n5)cc4)n3)cc2)n1` [Compound R945046], 4.08 µM. The same measure, in the same setting: with `CNC(=O)COc1cccc(Nc2ncc(F)c(Nc3ccc(OCCC(=O)OC)cc3)n2)c1` [Compound R950346] the figure was 1.95 µM; with `CNC(=O)COc1cc(Nc2ncc(F)c(Nc3ccc4cc[nH]c4c3)n2)ccc1OC` [Compound R926752], 1.73 µM; with `COC(=O)c1cc2ccc(Nc3ncc(F)c(Nc4cccc(O)c4)n3)cc2[nH]1` [Compound R926903], greater than 10 µM. Still for that read-out and setting: with `Oc1cccc(Nc2ncc(F)c(Nc3ccc4[nH]ncc4c3)n2)c1` [Compound R935268] the figure was 2.91 µM; with `Cn1ncc2cc(Nc3ncc(F)c(Nc4ccc5c(c4)NC(=O)C(C)(C)O5)n3)ccc21` [Compound R940338], 0.708 µM; with `CNC(=O)COc1cccc(Nc2ncc(F)c(Nc3ccc(OC)c(C(=O)NC)c3)n2)c1` [Compound R940306], 11 µM. In turn, `COc1ccc(Nc2nc(Nc3cc(C)c(O)c(Cl)c3)ncc2F)cc1CN1CCOCC1` [Compound R940316] returned a 50% inhibitory concentration (IC50) of 4.28 µM. For the compound `COC(=O)COc1ccc(Nc2cc(Cl)nc(Nc3ccc(OCC(=O)OC)cc3)n2)cc1` [Compound R926411], the IC50 is 16.9 µM. Consider `Oc1cccc(Nc2ncc(F)c(Nc3ccc(OCCN4CCOCC4)cc3)n2)c1` [Compound R926710], for which inhibition was half-maximal at 4.27 µM (IC50).

`CC(C)Oc1ccc(Nc2ncc(F)c(Nc3ccc4[nH]ncc4c3)n2)cc1` [Compound R935266] registered an IC50 greater than 10 µM. The compound `CCOC(=O)COc1ccc(Nc2nc(Nc3ccc(OCC(=O)OCC)cc3)c(NC(=O)NC(=O)CCl)c(C(=O)OCC)n2)cc1` [Compound R926589] registered an IC50 greater than 10 µM. In the case of `CNCCOc1cccc(Nc2ncc(F)c(Nc3ccc4c(c3)OCCO4)n2)c1` [Compound R926510], the IC50 was 0.122 µM. For `CN(C)C(=O)COc1cccc(Nc2ncc(F)c(Nc3ccc4c(c3)OCCO4)n2)c1` [Compound R925755], inhibition was half-maximal at 1.91 µM (IC50). The compound `CC(C)Oc1ccc(Nc2nc(Nc3ccc4[nH]ncc4c3)ncc2F)cc1` [Compound R935197] registered an IC50 of 2.43 µM. The compound `O=C(COc1cccc(Nc2ncc(F)c(Nc3cc(Cl)c(O)c(Cl)c3)n2)c1)N1CCNCC1` [Compound R950188] displayed an IC50 of 17.9 µM. Compound `COC(=O)COc1cccc(Nc2ncc(F)c(Nc3ccc4c(c3)OCCO4)n2)c1` [Compound R945124] returned a half-inhibitory concentration (IC50) of 6.16 µM.

For the compound `N#CCOc1ccc(Nc2nc(Nc3cccc(O)c3)ncc2F)cc1` [Compound R945071], the IC50 was found to be 0.631 µM. This IC50 is about 9.8-fold lower than that of the compound before.

As for `CNC(=O)COc1cccc(Nc2ncc(F)c(Nc3ccc4c(c3)NCCO4)n2)c1` [Compound R920395], 0.726 µM corresponded to half-maximal inhibition (IC50).

As to `COC(=O)c1ccc(Cn2ncc3ccc(Nc4ncc(F)c(Nc5cccc(O)c5)n4)cc32)c(OC)c1` [Compound R935321], the concentration for half-maximal inhibition (IC50) was greater than 10 µM. For the compound `Fc1cnc(Nc2cccc(OCCN3CCOCC3)c2)nc1Nc1ccc2c(c1)OCCO2` [Compound R926486], the IC50 was 1.75 µM. On to `Fc1cnc(Nc2ccc3cn[nH]c3c2)nc1Nc1ccc2cn[nH]c2c1` [Compound R935188], for which it took 1.8 µM to reach half-maximal inhibition (IC50).

The compound `Nc1ccc(Nc2ncc(F)c(Nc3ccc(N)cc3)n2)cc1` [Compound R950122] returned an IC50 of 13.9 µM. The compound `CSc1nc2ccc(Nc3ncc(F)c(Nc4ccc5c(c4)OCCO5)n3)cc2s1` [Compound R950201] gave an IC50 of 4.5 µM. `CNC(=O)COc1cccc(Nc2ncc(F)c(Nc3ccc4c(c3)OCCO4)n2)c1` [Compound R926816] registered an IC50 of 0.739 µM. Against the preceding compound, the IC50 is about 6.1-fold lower. Turning to `O=C(COc1cccc(Nc2ncc(F)c(Nc3ccc4c(c3)OCCO4)n2)c1)NC1CCCCC1` [Compound R926765], the midpoint of inhibition, the IC50, lay at 8 µM. `C=CCNC(=O)Oc1cccc(Nc2nc(Nc3cccc(OCC(=O)NC)c3)ncc2F)c1` [Compound R926917] returned an IC50 of 4.74 µM. `O=C(NCCN1CCOCC1)c1cc2cc(Nc3ncc(F)c(Nc4ccc5oc(C(=O)NCCN6CCOCC6)cc5c4)n3)ccc2o1` [Compound R950173] registered an IC50 of 9.18 µM. `Cc1cc(Nc2nc(Nc3cccc(OCC(=O)N4CCNCC4)c3)ncc2F)cc(C)c1O` [Compound R945140] gave an IC50 of 2.09 µM.

For `Oc1cccc(Nc2ccnc(Nc3ccc(OCc4nn[nH]n4)cc3)n2)c1` [Compound R920819], the half-inhibitory concentration (IC50) is greater than 10 µM.

The assay is the same for the next values; noted with them: Homo sapiens, Jurkat.
Take `COc1ccc(Nc2ncc(F)c(Nc3ccc(OC)c(O)c3)n2)cc1O` [Compound R926339]: the IC50 amounted to 2.15 µM. This counts as single-digit micromolar. The compound `COc1cc(-c2ccccc2)c(C)cc1Nc1ccnc(Nc2cc(C)c(-c3ccccc3)cc2OC)n1` [Compound R925808] yielded an IC50 greater than 10 µM. Consider `Oc1cccc(Nc2nc(Nc3cccc(-c4cc[nH]n4)c3)ncc2F)c1` [Compound R926841], for which the midpoint of inhibition, the IC50, lay at 3.28 µM.

Take `CCOc1ccc(Nc2ncc(C)c(Nc3ccc(OCC)cc3)n2)cc1` [Compound R926068]: the IC50 was determined as 11.4 µM. Compared with the last compound, the IC50 is about 3.5-fold higher.

Compound `Fc1cnc(Nc2ccc(SC(F)(F)F)cc2)nc1Nc1ccc2c(c1)OCCO2` [Compound R926899] came in with an IC50 greater than 10 µM. In turn, `CC(=O)Nc1ccc(Nc2ncc(F)c(Nc3ccc(NC(C)=O)cc3)n2)cc1` [Compound R940222] showed an IC50 of 9.47 µM. Turning to `Fc1cnc(Cl)nc1Nc1cccc(-c2nnc(-c3ccccc3)o2)c1` [Compound R926869], the half-maximal inhibitory concentration (IC50) is greater than 10 µM.

In the case of `CC(C)c1ccc(O)cc1Nc1ncc(F)c(Nc2cc(O)ccc2C(C)C)n1` [Compound R935077], the IC50 was greater than 10 µM. `N#Cc1cnc(Nc2cccc(O)c2)nc1Nc1cccc(O)c1` [Compound R925774] showed an IC50 of 7.5 µM. This counts as single-digit micromolar. For `Fc1cc(F)cc(Nc2ncc(F)c(Nc3ccc4c(c3)OCCO4)n2)c1` [Compound R926898], the 50% inhibitory concentration (IC50) was greater than 10 µM. In the case of `CC(C)(C)c1ccc(Nc2nc(Nc3ccc4c(c3)CC(C(=O)O)O4)ncc2F)cc1` (stereo not shown) [Compound R926720], the half-inhibitory concentration (IC50) is greater than 10 µM. For the compound `O=C(O)C1CCC(Nc2nc(Nc3ccc4c(c3)OCCO4)ncc2F)CC1` (stereo not shown) [Compound R925795], the IC50 is greater than 10 µM. Same read-out and setting: with `CC(=O)c1cccc(Nc2ncc(F)c(Nc3cccc(C(C)=O)c3)n2)c1` [Compound R950376] the figure was 18.1 µM. As to `O=C(O)c1ccc(Nc2ncc(F)c(Nc3ccc(C(=O)O)c(O)c3)n2)cc1O` [Compound R945061], the IC50 is greater than 10 µM. For the compound `COc1cc(Nc2ncc(F)c(Nc3cc(OC)c(OC)c(OC)c3)n2)cc(OC)c1OC` [Compound R926688], 3.78 µM corresponded to half-maximal inhibition (IC50). `Nc1nc(N(CC(O)c2ccccc2)c2ccc3c(c2)OCCO3)ncc1F` (stereo not shown) [Compound R925765] yielded an IC50 greater than 10 µM. The compound `Fc1cnc(Nc2ccc(Cl)cc2)nc1Nc1ccc(Cl)cc1` [Compound R926206] showed an IC50 greater than 10 µM. `CCOC(=O)c1cccc(Nc2ncc(F)c(Nc3ccc4c(c3)OCCO4)n2)c1` [Compound R925745] came in with an IC50 greater than 10 µM. On the same count and under the same terms, with `Oc1cccc(Nc2nc(Nc3cccc(-c4nnn[nH]4)c3)ncc2F)c1` [Compound R926842] the figure was greater than 10 µM; with `O=C1CCNC2=COc3ccc(Nc4nc(Nc5cccc(O)c5)ncc4F)cc3N12` [Compound R945237], 0.838 µM. `c1coc(-c2cnc(Nc3ccc4c(c3)OCCO4)nc2Nc2ccc3c(c2)OCCO3)c1` [Compound R925785] registered an IC50 of 3.12 µM. In the case of `Clc1cc(Nc2ccc3c(c2)OCCO3)nc(Nc2ccc3c(c2)OCCO3)n1` [Compound R926245], half-maximal inhibition (IC50) was put at 11.1 µM. `CCOc1ccc(Nc2ncc(F)c(Nc3ccc(OCC)c(N)c3)n2)cc1N` [Compound R950139] registered an IC50 of 5.45 µM. For `COC(=O)C=C1C=CC=C(Nc2ncc(F)c(NC3=CC=CC(=CC(=O)OC)C3)n2)C1` [Compound R935114], the IC50 was greater than 10 µM. On to `Nc1c(F)ccc(Nc2ccnc(Nc3ccc(F)c(N)c3F)n2)c1F` [Compound R950131], for which the IC50 is greater than 10 µM. As to `CCOC(=O)c1cnc(Nc2ccc(CC#N)cc2)nc1Nc1ccc(CC#N)cc1` [Compound R926319], the IC50 worked out at 15.6 µM. Same read-out and setting: with `COc1ccc(Nc2ccnc(Nc3ccc(OC)c(-c4ccccc4)c3)n2)cc1-c1ccccc1` [Compound R925806] the figure was greater than 10 µM.

(Values after patent US8158621B2, “Methods of treating or preventing autoimmune diseases with 2,4-pyrimidinediamine compounds” (Rigel Pharmaceuticals, Inc., priority 2002, dated 2012).)
